Here are results for 1 compound from patent US11267826B2, “Penicillin-binding protein inhibitors” (priority 2017, dated 2022).

For assay [1], the system named is E. coli DH5a harboring VIM-2. Kind of assay: Broth microdilution MIC, engineered E. coli expressing VIM-2. The class given is cell-based. Particulars: Escherichia coli, read-out: MIC, β-lactamase VIM. Here is the method:
(§1) To determine the ability of test compounds to potentiate the inhibition of the growth of bacterial strains, classic cell based broth microdilution MIC assays were employed. MIC assays are performed according to CLSI methods except where otherwise noted (CLSI, 2011 and CLSI, 2009). The reference strain S. aureus ATCC 29213 and the hyper-permeable E. coli 901C were used to determine the ability of the PBP compounds to inhibit bacterial growth. Briefly, cryo-preserved bacterial cultures of clinical strains are streaked for isolation on appropriate agar medium, in this case Mueller Hinton II agar. Following incubation to allow formation of colonies these plates are sealed with parafilm and stored refrigerated for up to two weeks. For preparation of assay inocula and to ensure low variability, at least 5 colonies are picked from the agar plates with an inoculating loop and aseptically transferred to a culture tube containing 3 mL of Mueller-Hinton Broth (supplemented with divalent cations to required levels based on Manufacturers' certification). The broth culture is grown for 3-5 hours at 37° C. with shaking at 200 rpm. Meanwhile, 2-fold serial dilutions of test compounds are conducted in a 96 well plate with a final volume of 75 μL per well at 2-fold the final desired concentration. After the dilution plates are set up the growing cultures are then diluted in a cuvette containing MH II broth and the optical density is measured at 600 nm. Inocula are diluted such that 75 μL of this culture in Mueller-Hinton Broth results in a starting bacterial concentration of 5×10^5 CFU/mL when added to the dilution plates. The plates are incubated 16-20 hours at 37° C. The MIC is read visually as the lowest concentration well with no bacterial growth.
(§2) To determine if test compounds were affected by various known β-lactamases, the inhibition of the growth of engineered strains of Escherichia coli harboring select single β-lactamases were tested. […]
(In broth dilution the organism is exposed to a series of concentrations in liquid medium.)

Assay [2] deals with T1, E. coli K12 PBP1b (Escherichia coli, UniProt P02919).
T1 construct: endogenous in cells; host or cells: Escherichia coli K12, membrane protein fraction
T1 sequence (P02919 whole entry): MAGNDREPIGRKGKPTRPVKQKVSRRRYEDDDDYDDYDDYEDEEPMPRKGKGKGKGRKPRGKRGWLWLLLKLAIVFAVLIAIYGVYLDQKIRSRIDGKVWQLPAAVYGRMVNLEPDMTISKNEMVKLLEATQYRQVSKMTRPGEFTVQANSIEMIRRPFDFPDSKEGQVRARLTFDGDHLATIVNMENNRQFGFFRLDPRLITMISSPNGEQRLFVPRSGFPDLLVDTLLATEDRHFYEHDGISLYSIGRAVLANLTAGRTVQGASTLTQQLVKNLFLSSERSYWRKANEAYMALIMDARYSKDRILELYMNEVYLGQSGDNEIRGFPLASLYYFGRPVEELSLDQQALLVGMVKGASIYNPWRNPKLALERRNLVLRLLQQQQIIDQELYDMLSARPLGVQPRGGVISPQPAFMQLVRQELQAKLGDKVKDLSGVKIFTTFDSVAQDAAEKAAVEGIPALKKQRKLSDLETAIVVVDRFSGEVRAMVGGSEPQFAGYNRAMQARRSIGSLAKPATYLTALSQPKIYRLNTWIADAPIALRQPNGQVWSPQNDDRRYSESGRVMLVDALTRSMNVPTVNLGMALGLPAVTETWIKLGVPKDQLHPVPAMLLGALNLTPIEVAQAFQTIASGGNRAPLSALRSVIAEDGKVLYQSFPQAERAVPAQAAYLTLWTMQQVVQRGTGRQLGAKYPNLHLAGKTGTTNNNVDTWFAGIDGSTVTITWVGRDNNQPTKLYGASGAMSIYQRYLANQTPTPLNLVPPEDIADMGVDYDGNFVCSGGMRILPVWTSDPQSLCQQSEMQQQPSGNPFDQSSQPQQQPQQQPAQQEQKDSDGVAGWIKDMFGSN
The assay is described as follows: Competition binding assay using Bodipy-FL boronic acid probe (Example 125). Particulars: Bodipy-FL boronic acid probe (Example 125) 30 μM, 10 minutes pre-incubation, 10 minutes reaction. Here is the method: Penicillin binding proteins were isolated from Escherichia coli K12 by growth of Escherichia coli K12 from a single colony in 4 L of Luria-Bertani (LB) broth at 35° C. and 250 rpm to an OD600 nm of 0.5. The cells were harvested by centrifugation at 7,000×g for 10 min. at 4° C. Cells were resuspended and washed in 50 mM potassium phosphate pH 7.5. The cells were re-suspended in sonication buffer [50 mM Tris-HCl pH 7.5, 1 mM MgCl2, 1 mM beta-mercaptoethanol, and 5 μg/mL DNAse I] and sonicated by 4 passes of 30 seconds at 45 W on ice. The sample was clarified by centrifugation at 3,000×g to remove cell debris and unbroken cells and supernatant containing the membrane proteins was retained. The membrane proteins including the PBPs were further purified from soluble constituents by an ultracentrifugation step at 100,000×g for 30 min. at 4° C. The membrane proteins are washed twice with 10 mM sodium phosphate pH 7, resuspended in a volume of 5 mL, quantitated by BCA assay, adjusted to […] and frozen at −80° C. until use.
The adapted Bocillin FL competition binding method described herein incorporates a 15 min. pre-incubation of test compound with isolated PBPs to attempt to balance the difference in mechanism of inhibition between beta-lactams (largely irreversible covalent bond to active site Serine) and the boron-containing PBP inhibitor test compounds (reversible covalent bond to active site Serine). Briefly, 50 μL reactions consisted of 100 μg's of total membrane protein extracts containing PBPs incubated with a dilution series of test compound ranging from 0.005 μg/mL to 2,480 μg/mL in 10 mM sodium phosphate pH7 containing 350 mM NaCl. Thirty minute reactions at 35° C. were initiated by addition of […] Bocillin FL, quenched by addition of SDS-PAGE loading buffer containing sodium dodecyl sulfate (SDS) and heated for 15 minutes at 95° C. to denature proteins in preparation for SDS-polyacrylamide gel electrophoresis. The Bocillin FL labeled PBPs are then separated by SDS-PAGE in Novex NuPage 10% Bis-Tris pre-cast gels (Invitrogen). The SDS-PAGE gel, post-electrophoresis, is then washed in water to remove excess SDS for 10 minutes at room temperature and placed on the scanning bed of a GE Healthcare/Amersham Biosciences Storm 860 fluorescence scanner. The excitation wavelength is in the blue spectrum at 450 nm and the emission at 520 nm is captured by the instrument. Effective PBP inhibitors are detected by a reduction in Bocillin FL labeling of the particular PBP over the dose range of test compound in a dose-responsive manner. High molecular weight PBP 1a/1b are not resolved by these gels, thus we report HMW PBP binding results in μg/mL for PBPs 1a/1b combined as well as for PBP2 and PBP3.
To determine the ability of boronic acid-based test PBP inhibitors to bind Penicillin Binding Proteins (PBPs), a competition binding assay using a Bodipy-FL-labeled boronic acid PBP inhibitor (Example 125) was adapted from the classical method used to assess PBP potency of beta-lactams using Bocillin-FL (fluorescently-labeled penicillin V). The method is identical to that described in Example I for the Bocillin-FL competition binding assay with the following exceptions, the Bodipy-FL boronic acid probe (Example 125) is used at a final concentration of 30 μM, pre-incubation time of test compound with PBP enzymes is 10 minutes and reaction time is set for 10 minutes and reactions are prepared for SDS-PAGE analysis by simply adding SDS-containing loading buffer. Representative results are shown in Table 5, where A represents a potency of >1000 μg/mL, B represents a potency between 64 and 1000 μg/mL inclusive, and C represents a potency of <64 μg/mL. NT=Not Tested.

Assay [3] concerns E. coli DH5a harboring KPC-2. Kind of assay: microbe, parasite or virus in culture. The class given is cell-based. The conditions noted are these: Escherichia coli, read-out: MIC, β-lactamase KPC. Here is the method: To determine the ability of test compounds to potentiate the inhibition of the growth of bacterial strains, classic cell based broth microdilution MIC assays were employed. MIC assays are performed according to CLSI methods except where otherwise noted (CLSI, 2011 and CLSI, 2009). The reference strain S. aureus ATCC 29213 and the hyper-permeable E. coli 901C were used to determine the ability of the PBP compounds to inhibit bacterial growth. Briefly, cryo-preserved bacterial cultures of clinical strains are streaked for isolation on appropriate agar medium, in this case Mueller Hinton II agar. Following incubation to allow formation of colonies these plates are sealed with parafilm and stored refrigerated for up to two weeks. For preparation of assay inocula and to ensure low variability, at least 5 colonies are picked from the agar plates with an inoculating loop and aseptically transferred to a culture tube containing 3 mL of Mueller-Hinton Broth (supplemented with divalent cations to required levels based on Manufacturers' certification). The broth culture is grown for 3-5 hours at 37° C. with shaking at 200 rpm. […] After the dilution plates are set up the growing cultures are then diluted in a cuvette containing MH II broth and the optical density is measured at 600 nm. […] The MIC is read visually as the lowest concentration well with no bacterial growth. […]

In assay [4] the test system is E. coli DH5a harboring OXA-48. The assay is described as follows: Broth microdilution MIC, engineered E. coli expressing OXA-48. The class given is cell-based. The conditions noted are these: Escherichia coli, read-out: MIC, β-lactamase OXA. The method, then:
as §1, §2

Assay [5] deals with T2, E. coli PBP3 (Escherichia coli, UniProt P0AD68).
T2 construct: 100 μg's of total membrane protein extracts containing PBPs; endogenous in cells; host or cells: Escherichia coli K12, membrane protein fraction
T2 sequence (P0AD68 1-577): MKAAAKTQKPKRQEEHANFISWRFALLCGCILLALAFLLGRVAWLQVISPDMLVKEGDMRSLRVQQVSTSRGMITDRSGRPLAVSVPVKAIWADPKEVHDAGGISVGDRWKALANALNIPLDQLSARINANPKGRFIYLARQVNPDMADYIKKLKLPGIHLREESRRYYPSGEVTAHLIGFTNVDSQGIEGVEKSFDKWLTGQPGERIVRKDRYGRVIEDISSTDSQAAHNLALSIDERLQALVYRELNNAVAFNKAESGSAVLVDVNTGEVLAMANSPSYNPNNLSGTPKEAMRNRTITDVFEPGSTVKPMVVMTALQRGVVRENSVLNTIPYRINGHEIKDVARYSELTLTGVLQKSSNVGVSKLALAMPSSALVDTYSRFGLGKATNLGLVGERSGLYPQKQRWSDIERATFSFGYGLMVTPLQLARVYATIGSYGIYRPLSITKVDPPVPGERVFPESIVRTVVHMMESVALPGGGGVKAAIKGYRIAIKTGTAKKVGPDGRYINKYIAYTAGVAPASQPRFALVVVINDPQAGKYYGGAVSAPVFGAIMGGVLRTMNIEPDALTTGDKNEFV
The assay is described as follows: Bocillin FL competition binding assay, PBP3. Also noted: species or system Escherichia coli K12. The conditions noted are these: 15 min pre-incubation. A digest of the protocol: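 E. coli K12 membrane extracts (100 µg protein) pre-incubated 15 min with compound (0.005–2,480 µg/mL) in pH 7 phosphate/350 mM NaCl, then labelled with Bocillin FL 30 min at 35°C; SDS-PAGE fluorescence (ex 450/em 520 nm), μg/mL reported. PBP1a/1b unresolved, reported combined.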

With `Nc1nc(/C(=N/O)C(=O)N[C@H]2Cc3cccc(C(=O)O)c3OB2O)cs1` [Example 6, (R,Z)-3-(2-(2-aminothiazol-4-yl)-2-(hydroxyimino)acetamido)-2-hydroxy-3,4-dihydro-2H-benzo[e][1,2]oxaborinine-8-carboxylic Acid], the MIC in assay [1], in assay [3] and in assay [4] was 16 mg/L throughout. Also, the “E. coli K12 PBP1b Potency” value in assay [2] is listed as “C (C represents a potency of <64 μg/mL)”. Also, in assay [5], the “E. coli PBP3 Potency” value was “B (B represents a potency between 64 and 1000 μg/mL inclusive)”.
